Structures can show the parent of a compound that is named as a salt.
Molecular target: HIV-1 protease (Human immunodeficiency virus type 1 group M subtype B, UniProt P04585)
Assay: biochemical
Conditions: for inhibition at 1 µM: read-out: HIV-1 Protease % Inhib, dose 1.000 uM; for inhibition at 10 µM: read-out: HIV-1 Protease % Inhib, dose 10.000 uM; for inhibition at 100 µM: read-out: HIV-1 Protease % Inhib, dose 100.000 uM; for IC50: HIV-1 Protease IC50; for HIV-1 Protease % Inhib: dose 100.000 uM
Description: The HIV protease screening assay is based on fluorescently labeled substrate which can be resolved from nonlabeled cleavage product using special beads coated with streptavidin. The substrate is biotinylated at the amino terminal arginine and fluorescently labeled with fluorescein isothiocynate (FITC) at the carboxyl terminal lysine. This assay has been employed to detect novel, nonpeptidic inhibitors of HIV-1 protease. Substrate (20 μl of 0.2 μM), sample (10 μl of desired concentration), and enzyme (10 μl of 0.1 μM) are added to a 96 well pandex plate. The assay is run in 0.1M sodium acetate buffer at pH 5.5 in the presence of 1.0M sodium chloride and 0.05% NP-40 with incubated in the dark for one hour at room temperature. Strepavidin coated polystyrene beads {40 μl of 0.1% (w/v)} are added and the plate is incubated in the dark for an additional half hour. The labeled cleavage product is separated from the unreacted substrate via filtration and is read on the Idexx screen machine. The data are analyzed by appropriate computer algorithms to ascertain percent inhibition values.

SMILES | inhibition at 1 µM [%] | inhibition at 10 µM [%] | inhibition at 100 µM [%] | IC50 [µM] | HIV-1 Protease % Inhib [%]
CC(c1cccc(C(=O)NC2c3ccccc3CC2O)c1)c1c(O)c2ccccc2oc1=O (centres unmarked) [Example 29, Benzamide, N-(2,3-dihydro-2-hydroxy-1H-inden-1-yl)-3-[1-(4-hydroxy-2-oxo-2H-1-benzopyran-3-yl)ethyl]-] | < 10 | 54.2 | 98.4 | – | –
CCC(C)C(NC(=O)c1cccc(C(C)c2c(O)c3ccccc3oc2=O)c1)C(=O)NCc1ccccn1 (centres unmarked) [Example 30, Benzamide, 3-[1-(4-hydroxy-2-oxo-2H-1-benzopyran-3-yl)ethyl]-N-[2-methyl-1-[[(2-pyridinylmethyl)amino]carbonyl]butyl]-] | < 10 | 65.3 | 109 | – | –
CCCCNC(=O)c1cccc(C(C)c2c(O)c3ccccc3oc2=O)c1 (centres unmarked) [Example 31, Coumarin, 3-[1-[3-[(butylamino)carbonyl]phenyl]ethyl]-4-hydroxy-] | < 10 | < 10 | 53.7 | – | –
CC(c1cccc(C(=O)NCC(=O)N2CCOCC2)c1)c1c(O)c2ccccc2oc1=O (centres unmarked) [Example 32, Coumarin, 4-hydroxy-3-[1-[3-[[[[(4-morpholino)carbonyl]methyl]amino]carbonyl]phenyl]ethyl]-] | < 10 | < 10 | 46.5 | – | –
CC(c1cccc(C(=O)NCC(=O)NCc2nc3ccccc3[nH]2)c1)c1c(O)c2ccccc2oc1=O (centres unmarked) [Example 33, Coumarin, 3-[1-[3-[[[[[[(2-benzimidazolyl)methyl]amino]carbonyl]methyl]amino]carbonyl]phenyl]ethyl]4-hydroxy-] | < 10 | 11.2 | 77.4 | – | –
O=c1oc2ccccc2c(O)c1C1CCCc2ccccc21 (centres unmarked) [Example 34, 4-hydroxy-3-[1-(1,2,3,4-tetrahydro)naphthyl]-coumarin] | < 10 | 50.3 | 91.1 | 3.6 | –
O=c1oc2ccccc2c(O)c1C1CCc2ccccc21 (centres unmarked) [Example 35, 4-hydroxy-3-[1-indanyl]-coumarin] | < 10 | 19.6 | 92.6 | 6.8 | –
CCC(c1ccc(F)cc1)c1c(O)c2ccccc2oc1=O (stereo not drawn) [Example 36, Coumarin, 3-(α-ethyl-p-fluorobenzyl)4-hydroxy-] | < 10 | 16.9 | 81.6 | – | –
CCCC(c1ccccc1)c1c(O)c2ccc(OC)cc2oc1=O (stereo not drawn) [Example 37, Coumarin, 7-methoxy-3-(α-propylbenzyl)4-hydroxy-] | < 10 | 59.5 | 103 | 7 | –
COc1ccc2c(O)c(C(c3ccccc3)C3CC3)c(=O)oc2c1 (centres unmarked) [Example 38, 3-cyclopropylphenylmethyl-4-hydroxy-7-methoxy coumarin] | 18.6 | 83.2 | 93.4 | 2.8 | –
CC(C)(c1ccccc1)c1c(O)c2ccccc2oc1=O [Example 39, 3-(α,α-dimethylbenzyl)4-hydroxy coumarin] | 13.8 | 69.6 | 82 | 5 | –
CCC(c1cccc(N)c1)c1c(O)c2ccccc2oc1=O (centres unmarked) [Example 40, Coumarin, 3-[1-(3-aminophenyl)propyl]4-hydroxy-, monohydrochloride-] | < 10 | < 10 | 51.3 | – | –
CCC(c1cccc(NC(=O)COc2cccc3ccccc23)c1)c1c(O)c2ccccc2oc1=O (centres unmarked) [Example 41, Coumarin, 4-hydroxy-3-[1-[3-[[(1-naphthoxymethyl)carbonyl]amino]phenyl]propyl]-] | < 10 | 32.6 | 80.6 | – | –
CCC(c1cccc(NC(=O)C(NC(=O)OC(C)(C)C)C(C)C)c1)c1c(O)c2ccccc2oc1=O (centres unmarked) [Example 42, Carbamic acid, [1-[[[3-[1-(4-hydroxy-2-oxo-2H-1-benzopyran-3-yl)propyl]phenyl]amino]carbonyl]-2-methylpropyl]-, 1,1-dimethylethyl ester] | 11.5 | 75.2 | 112 | 9.9 | 102.8
CCC(c1cccc(NC(=O)CNC(=O)OC(C)(C)C)c1)c1c(O)c2ccccc2oc1=O (centres unmarked) [Example 43, Coumarin, 4-hydroxy-3-[1-[3-[[[[(1,1-dimethylethoxycarbonyl)amino]methyl]carbonyl]amino]phenyl]propyl]-] | 28.4 | 103 | 122 | 2.1 | –
CCCCC(=O)Nc1cccc(C(CC)c2c(O)c3ccccc3oc2=O)c1 (centres unmarked) [Example 44, Coumarin, 4-hydroxy-3-[1-[3-[(1-oxopentyl)amino]phenyl]propyl]-] | < 10 | < 10 | 55.6 | – | –
CCC(c1cccc(NC(=O)c2ccccn2)c1)c1c(O)c2ccccc2oc1=O (centres unmarked) [Example 45, Coumarin, 4-hydroxy-3-[1-[3-[[(2-pyridinyl)carbonyl]amino]phenyl]propyl]-] | < 10 | 28.5 | 90.9 | – | –
CCC(c1cccc(NC(=O)CN)c1)c1c(O)c2ccccc2oc1=O (centres unmarked) [Example 46, Coumarin, 3-[1-[3-[[(aminomethyl)carbonyl]amino]phenyl]propyl]4-hydroxy-, trifluoroacetate (salt)] | 22.1 | 96.3 | 116 | 4.2 | 107
CCC(c1cccc(NC(=O)CC(C)(C)NC(=O)OC(C)(C)C)c1)c1c(O)c2ccccc2oc1=O (centres unmarked) [Example 47, Coumarin, 4-hydroxy-3-[1-[3-[[1-oxo-3-methyl-3-[(1,1-dimethylethoxycarbonyl)amino]butyl]amino]phenyl]propyl]-] | < 10 | < 10 | 53 | – | –
CCC(c1cccc(NC(=O)CC(C)(C)N)c1)c1c(O)c2ccccc2oc1=O (centres unmarked) [Example 48, Coumarin, 3-[1-[3-[(3-amino-3-methyl-1-oxobutyl)amino]phenyl]propyl]-4-hydroxy-, trifluoroacetate (salt)] | < 10 | < 10 | 43.3 | – | –
CCC(CC(=O)Nc1cccc(C(CC)c2c(O)c3ccccc3oc2=O)c1)c1ccccc1 (centres unmarked) [Example 49, Coumarin, 4-hydroxy-3-[1-[3-[(1-oxo-3-phenylpentyl)amino]phenyl]propyl]-] | < 10 | 21.9 | 60.3 | – | –
CCC(c1cccc(NC(=O)CCCNC(=O)OC(C)(C)C)c1)c1c(O)c2ccccc2oc1=O (centres unmarked) [Example 50, Coumarin, 4-hydroxy-3-[1-[3-[[4-[(1,1-dimethylethoxycarbonyl)amino]-1-oxobutyl]amino]phenyl]propyl]-] | 33.5 | 80.3 | 95.5 | 2.3 | –
CCC(c1cccc(NC(=O)CC[C@H](NC(=O)OC(C)(C)C)C(=O)OC(C)(C)C)c1)c1c(O)c2ccccc2oc1=O (stereo partly drawn) [Example 51, L-Glutamine, N2-[(1,1-dimethylethoxy)carbonyl]-N-[3-[1-(4-hydroxy-2-oxo-2H-1-benzopyran-3-yl)propyl]phenyl]-, 1,1-dimethylethyl ester] | < 10 | < 10 | 39.6 | – | –
CCC(c1cccc(NC(=O)CC[C@H](N)C(=O)O)c1)c1c(O)c2ccccc2oc1=O (stereo partly drawn) [Example 52, L-Glutamine, N-[3-[1-(4-hydroxy-2-oxo-2H-1-benzopyran-3-yl)propyl]phenyl]-, mono(trifluoroacetate) (salt)] | 26.8 | 81.5 | 120 | 3.1 | –
CCC(c1cccc(NC(=O)CCCc2ccccc2)c1)c1c(O)c2ccccc2oc1=O (centres unmarked) [Example 53, Coumarin, 4-hydroxy-3-[1-[3-[(i-oxo-4-phenylbutyl)amino]phenyl]propyl]-] | < 10 | < 10 | 71.8 | – | –
CCC(c1cccc(NC(=O)CCCCc2ccccc2)c1)c1c(O)c2ccccc2oc1=O (centres unmarked) [Example 54, Coumarin, 4-hydroxy-3-[1-[3-[(1-oxo-5-phenylpentyl)amino]phenyl]propyl]-] | < 10 | – | – | – | –
CCC(c1cccc(NC(=O)Cc2ccccc2)c1)c1c(O)c2ccccc2oc1=O (centres unmarked) [Example 55, Coumarin, 4-hydroxy-3-[1-[3-[[(phenylmethyl)carbonyl]amino]phenyl]propyl]-] | < 10 | < 10 | 72 | – | –
CCC(c1cccc(NC(=O)CCC2CCCCC2)c1)c1c(O)c2ccccc2oc1=O (centres unmarked) [Example 56, Coumarin, 3-[1-[3-[(3-cyclohexyl-1-oxopropyl)amino]phenyl]propyl]-4-hydroxy-] | < 10 | < 10 | 49.5 | – | –
CCC(c1cccc(NC(=O)CCc2ccccc2)c1)c1c(O)c2ccc(OC)cc2oc1=O (centres unmarked) [Example 57, Coumarin, 4-hydroxy-7-methoxy-3-[1-[3-[(1-oxo-3-phenylpropyl)amino]phenyl]propyl]-] | 17.6 | 94.4 | 99.3 | 2.8 | –

— patent publication US5686486A, “4-hydroxy-benzopyran-2-ones and 4-hydroxy-cycloalkyl[b]pyran-2-ones useful to treat retroviral infections” (priority 1995, dated 1997)
